Experimental data as given in patent US11471507B2, “HMGB1 antagonist” (THE FEINSTEIN INSTITUTES FOR MEDICAL RESEARCH, priority 2019, dated 2022).
Values joined by “and” are separate entries in the source; they are usually repeats but may differ in a detail not shown here. Equal values may be shown once. “Also recorded” adds a separate entry of the source. Read-outs that look alike come from different tables or passages of the source. Marks after values point to notes of the source that are not given here.

What was measured:
in vivo = conditions: male, Sprague-Dawley, rat; for AUC(0-inf): iv, 1 mg/kg
Solubility of K883 = assay type: physicochemical
Text: This provides the basis for developing intravenous (IV) formulation that will serve as a benchmark for developing oral (PO) formulations.

[1] = system: HMGB1-induced TNF release; experiment: HMGB1-induced TNF release in human primary macrophages (ELISA); assay type: cell-based; conditions: FIG. 17A
Experimental: For all of these studies, TNF released was measured using an ELISA.

[2] = system: CCI-induced neuropathic pain; experiment: Chronic constriction injury of the sciatic nerve (CCI) neuropathic pain; assay type: in vivo, male Wistar rats; conditions: for Paw Withdrawal Latency: CCI
Experimental: The CCI rats each received surgery. […] Mechanical and thermal sensitivity tests were also performed over time. Hargreaves Thermal Hypersensitivity test was administered to the rats as well as Von Frey mechanical hypersensitivity test.
Rats (male Wistar, 150-180 gm, n=6/group) had CCI surgery. […] Two weeks after surgery, thermal (Hargreaves) or mechanical (von Frey) hypersensitivity was assessed. *: P<0.05 vs. PBS group. […]

STZ-induced diabetes = experiment: STZ-induced diabetes; assay type: in vivo, mice; conditions: 500 μg/mouse repetitive administration; vs PBS
Experimental: Mice were administered repetitive administration of […] (500 μg/mouse). […] Repetitive administration of […] was therefore shown to be beneficial in STZ-induced diabetes. […] (*: P<0.05 vs. PBS group. N=6-8 mice per group).

Single-dose tolerability = assay type: in vivo; conditions: single-dose studies
[3] = system: CCI-induced neuropathic pain; experiment: Chronic constriction injury of the sciatic nerve (CCI) neuropathic pain; design: species or system male Wistar rats; conditions: rat, in vivo
[4] = system: cecal ligation and puncture-sepsis; experiment: Cecal ligation and puncture (CLP) sepsis; assay type: in vivo; conditions: male C57BL/6 mice; 500 μg/mouse IP once a day for 3 days starting 24 hours post CLP; n=15
[5] = system: DAMPs-induced TNF secretion (CIRP, SAA, PEDF, HSP 70, HSP90, H2A); experiment: DAMPs-induced TNF secretion in human macrophages; assay type: cell-based; conditions: 16 hours
[6] = Pharmacokinetics after intravenous administration in rats (LC-MS)
[7] = system: APAP-induced liver injury; experiment: APAP-induced liver injury model; assay type: in vivo, male C57BL/6 mice
F11 cells = experiment: Disulfide HMGB1-induced calcium influx in F11 cells; assay type: cell-based; conditions: relative fluorescent intensity; most inhibition at 50 μg/ml
Text: These studies all measured relative fluorescent intensity with FIG. 30C which included the largest amount of […]

[8] = system: PAMPs-induced TNF release (LPS, PGN, AGE, Poly I:C); experiment: PAMPs-induced TNF release in human macrophages; assay type: cell-based; conditions: LPS 4 ng/ml, poly I:C 50 μg/ml, PGN 5 μg/ml, S100A12 50 μg/ml; 16 hours
[9] = in vivo
[10] = system: liver ischemia and reperfusion injury; conditions: 500 μg/mouse IP at time of I/R surgery; 6 hours; vs vehicle; cited from earlier work
[11] = system: cecal ligation and puncture-sepsis; conditions: male C57BL/6 mice; 50 or 500 μg/mouse IP once a day for 4 days starting 24 hours post CLP; n=20; comparative data; cited from earlier work
[12] = system: APAP-induced liver injury; conditions: comparative data, cited from earlier work

NC(=O)N(CCC(=O)O)NC(=O)[C@H](CO)NC(=O)[C@H](CO)NC(=O)N(N)Cc1ccccc1 [K883]
AUC(0-inf) (in vivo; Mean): 3780 ng·h/mL | AUC(0-inf) (in vivo; individual rats): 3810 ng·h/mL | half-life (in vivo; serum half-life): > 60 min | solubility (Solubility of K883; aqueous with cosolvent or surfactant or cyclodextrin, PBS:PEG 300:propylene glycol:polysorbate 80 at 50:40:5:5, preliminary evidence, read-out: solubility in excipient mixture): > 5000 µg/mL | solubility (Solubility of K883; water, read-out: solubility in water): < 100 µg/mL | HMGB1-induced TNF secretion [1]: inhibition | CCI-induced thermal and mechanical hypersensitivity ([2]; 800 μg/rat IP once a day for 3 days, Hargreaves, von Frey): ameliorated both mechanical and thermal hypersensitivity; also recorded: improved CCI-induced thermal and mechanical hypersensitivity | tolerance to repeated treatment ([2]; 800 μg/rat IP once daily for three days): did not develop tolerance | paw withdrawal ([2]; CCI rat model, vehicle 3.73+/−0.58 (SD)): 5.45 ± 0.98 s | Paw Withdrawal Latency ([2]; 0 hours post treatment): 4.1 ± 1.0 s | Paw Withdrawal Latency ([2]; 2 hours post treatment): 4.3 ± 1.2 s | Paw Withdrawal Latency ([2]; 6 hours post treatment): 6.0 ± 0.6* sec | Paw Withdrawal Latency ([2]; 24 hours post treatment): 5.0 ± 0.5 s | hyperglycemia (STZ-induced diabetes): delays hyperglycemia | insulitis (STZ-induced diabetes): reduces insulitis | weight gain (STZ-induced diabetes): improves weight gain | tolerability (Single-dose tolerability): well-tolerated | CCI-induced CXCL1, TNF and IL-1β expression (spine) [3]: reduce CCI-induced CSCL1, TNF and IL-1β expression | CCI-induced CXCL1 and TNF expression (DRGs) [3]: reduce CCI-induced CSCL1 and TNF expression | sepsis lethality (survival 2 weeks) [4]: protects against sepsis lethality | TNF secretion induced by other DAMPs [5]: not inhibited | AUClast, individual rats ([6]; IV 1 mg/kg, 1 mg/kg): 3772 ng·h/mL and 3807 ng·h/mL and 3749 ng·h/mL | MRTlast, individual rats ([6]; IV 1 mg/kg, 1 mg/kg): 32.1 min and 31.7 min and 36.4 min | Vss, individual rats ([6]; IV 1 mg/kg, 1 mg/kg): 0.163 L/kg | t1/2, individual rats ([6]; IV 1 mg/kg, 1 mg/kg): 78 min | Plasma concentration, individual rats ([6]; IV 1 mg/kg, 0.50 hr, 1 mg/kg): 2500 ng/mL and 3220 ng/mL | Plasma concentration, individual rats ([6]; IV 1 mg/kg, 1.0 hr, 1 mg/kg): 1160 ng/mL and 1300 ng/mL | Plasma concentration, individual rats ([6]; IV 1 mg/kg, 2.0 hr, 1 mg/kg): 130 ng/mL and 142 ng/mL | Plasma concentration, individual rats ([6]; IV 1 mg/kg, 4.0 hr, 1 mg/kg): 15.1 ng/mL and 17.7 ng/mL | Plasma concentration, individual rats ([6]; IV 1 mg/kg, 6.0 hr, 1 mg/kg): 4.04 ng/mL and 4.77 ng/mL | Plasma concentration, individual rats ([6]; IV 1 mg/kg, 8.0 hr): 2.01 ng/mL | Plasma concentration, individual rats ([6]; IV 1 mg/kg, 8.0 hr, 1 mg/kg): 0.871 ng/mL and 1.68 ng/mL | AUClast, Mean ([6]; IV 1 mg/kg, mean of 3 rats): 3776 ng·h/mL | MRTlast, Mean ([6]; IV 1 mg/kg, mean of 3 rats): 33.4 min | half-life ([6]; male, Sprague-Dawley, rat, in vivo, 1 mg/kg, in vivo half-life (T½)): > 60 min | AUC(0-inf) ([6]; male, Sprague-Dawley, rat, in vivo, iv, 1 mg/kg): 3780 ng·h/mL | concentration at 0.5 hr ([6]; male, Sprague-Dawley, rat, in vivo, iv, 1 mg/kg, Plasma concentration, Mean, IV 1 mg/kg, 0.50 hr, mean of 3 rats): 2910 ng/mL | concentration at 1 hr ([6]; male, Sprague-Dawley, rat, in vivo, iv, 1 mg/kg, Plasma concentration, Mean, IV 1 mg/kg, 1.0 hr, mean of 3 rats): 1090 ng/mL | concentration at 2 hr ([6]; male, Sprague-Dawley, rat, in vivo, iv, 1 mg/kg, Plasma concentration, Mean, IV 1 mg/kg, 2.0 hr, mean of 3 rats): 135 ng/mL | concentration at 4 hr ([6]; male, Sprague-Dawley, rat, in vivo, iv, 1 mg/kg, Plasma concentration, Mean, IV 1 mg/kg, 4.0 hr, mean of 3 rats): 16.6 ng/mL | concentration at 6 hr ([6]; male, Sprague-Dawley, rat, in vivo, iv, 1 mg/kg, Plasma concentration, Mean, IV 1 mg/kg, 6.0 hr, mean of 3 rats): 5.1 ng/mL | concentration at 8 hr ([6]; male, Sprague-Dawley, rat, in vivo, iv, 1 mg/kg, Plasma concentration, Mean, IV 1 mg/kg, 8.0 hr, mean of 3 rats): 1.52 ng/mL | concentration at 0.5 hr ([6]; male, Sprague-Dawley, rat, in vivo, iv, 1 mg/kg, Plasma concentration, individual rats, IV 1 mg/kg, 0.50 hr): 3020 ng/mL | concentration at 1 hr ([6]; male, Sprague-Dawley, rat, in vivo, iv, 1 mg/kg, Plasma concentration, individual rats, IV 1 mg/kg, 1.0 hr): 814 ng/mL | concentration at 2 hr ([6]; male, Sprague-Dawley, rat, in vivo, iv, 1 mg/kg, Plasma concentration, individual rats, IV 1 mg/kg, 2.0 hr): 133 ng/mL | concentration at 4 hr ([6]; male, Sprague-Dawley, rat, in vivo, iv, 1 mg/kg, Plasma concentration, individual rats, IV 1 mg/kg, 4.0 hr): 17 ng/mL | concentration at 6 hr ([6]; male, Sprague-Dawley, rat, in vivo, iv, 1 mg/kg, Plasma concentration, individual rats, IV 1 mg/kg, 6.0 hr): 6.49 ng/mL | serum ALT ([7]; 50 ugs/mouse, vs vehicle controls): reduced serum ALT | liver necrosis (H&E histology) ([7]; APAP 350 mg/kg IP, K883 50 μg/mouse IP at 2 and 7 hours post-APAP, 24 hours, vs vehicle): reduced liver necrosis | mice surviving the toxicity of APAP (2 weeks) ([7]; APAP 400 mg/kg, 50 μg/mouse IP once-a-day for 5 days starting 2 hours post-APAP, 8 in the control group): 14 mice out of 15 | disulfide HMGB1-induced calcium influx (F11 cells): inhibit disulfide hmgb1-induced calcium influx | PAMPs-induced TNF release [8]: failed to inhibit other PAMPS; also recorded: does not inhibit other PAMPs | oral bioavailability [9]: low oral bioavailability

NC(=O)[C@H](CCC(=O)O)NC(=O)[C@H](CO)NC(=O)[C@H](CO)NC(=O)[C@@H](N)Cc1ccccc1 [P5779]
Serum levels of ALT and AST [10]: reduced | sepsis lethality (survival 2 weeks) [11]: protects against sepsis lethality | serum ALT ([12]; 500 ugs/mouse): significant reductions in ALT | liver necrosis (H&E histology) ([12]; APAP 350 mg/kg IP, P5779 50 or 500 μg/mouse IP at 2 and 7 hours, vs scrambled control peptide): reduced liver necrosis | Percent survival (2 weeks) post-APAP ([12]; APAP 400 mg/kg, 500 μg/mouse IP once a day for 5 days, n=30): significantly improved
